Experimental findings from patent US8962652B2, “Derivatives of purine or deazapurine useful for the treatment of (inter alia) viral infections” (Gilead Sciences, Inc., priority 2009, dated 2015) are described below.

Structures are written as SMILES.

The assay relates to human Peripheral Blood Mononuclear Cell (PMBC). Put plainly: PBMC assay: cytokine (IFN-alpha) stimulation at 24 hours. Conditions: minimum concentration for induction of IFN-alpha = 3-fold over background. The class given is cell-based. Here is the method:
Assays were conducted to determine cytokine stimulation at 24 hours from human Peripheral Blood Mononuclear Cell (PMBC) using the compounds of the present invention. The assays were run in duplicate, with 8-point, half-log dilution curves. The compounds of the present invention were diluted from 10 mM DMSO solution. Cell supernatants are assayed directly for IFNa and 1:10 dilution for TNFa. The assays were performed in a similar fashion as described in Bioorg. Med. Chem. Lett. 16, 4559, (2006). Specifically, cryo-preserved PBMCs were thawed and seeded 96 well plates with 750,000 cells/well in 190 μL/well cell media. The PBMCs were then incubated for 1 hour at 37° C. at […]. Then, the compounds of the present invention were added in 10 μL cell media at 8 point, half-log dilution titration. The plates were incubated at 37° C. and 5% CO2 for 24 hours and then spinned at 1200 rpm for 10 min, which was followed by collecting supernatant and storing the same at −80° C. Cytokine secretion was assayed with Luminex and Upstate multi-plex kits, using a Luminex analysis instrument. IFN MEC value for a compound was the minimum concentration at which IFN-a production stimulated by the compound reached three fold above background, as determined using the assay method above.

`COCCOc1cc2c([nH]c(=O)n2Cc2ccc(-c3ccc(CN4CCCC4)cc3)cc2)c(N)n1` [AX]: for the setting “read-out: MEC”, the minimal effective concentration lay within 0.001 to 0.009 µM.

On to `CCCCOc1nc(N)c2[nH]c(=O)n(Cc3cccc(-c4ccccc4CN4CCCC4)c3)c2n1` [A], for which the MEC entry is “d (d: 100 nM-1000 nM)”.
